The source of these data is the NIST ThermoML archive (doi:10.1016/j.jct.2007.01.009).

± gives the expanded uncertainty stated by the source.

Series [1] can be described thus: xn = mol fraction of the nth substance listed. The settings on record: 283.15 K; 101 kPa; Liquid; Pycnometric method; x2 = 0.
The conditions of series [2]: 101.33 kPa, Liquid.

As usually defined, the mass density is mass per unit of volume. As for `O` [water] + CC(O)CCC(C)O, the mass density in series [1] is recorded as 999.7 ± 0.3 kg/m3.

`O` [water] + OCCCCCCO: in series [1], the mass density is recorded as 999.7 ± 0.3 kg/m3.

With `O` [water] + CCCCC(O)CO, the mass density in series [1] worked out at 999.69 ± 0.3 kg/m3.

Regarding `O` [water] + CC(O)CCCCO, the mass density in series [1] worked out at 999.7 ± 0.3 kg/m3.

For the molecule `CC(O)CCCCO` (configuration not stated) [1,5-hexanediol], the mass density is on record as 978.41 ± 0.69 kg/m3 in series [2] (283.15 K); 975.51 ± 0.66 kg/m3 in series [2] (288.15 K); 972.31 ± 0.64 kg/m3 in series [2] (293.15 K); 968.91 ± 0.66 kg/m3 in series [2] (298.15 K); 965.51 ± 0.67 kg/m3 in series [2] (303.15 K); 962.15 ± 0.69 kg/m3 in series [2] (308.15 K).

As for `CCCCC(O)CO` (configuration not stated) [1,2-hexanediol], the mass density in series [2] (283.15 K) was 958.87 ± 1.2 kg/m3; in series [2] (288.15 K), 955.23 ± 1.2 kg/m3; in series [2] (293.15 K) it was 951.68 ± 1.2 kg/m3; in series [2] (298.15 K) it was 948.08 ± 1.2 kg/m3; in series [2] (303.15 K), 944.54 ± 1.2 kg/m3; in series [2] (308.15 K), 940.88 ± 1.2 kg/m3.

On to `CC(O)CCC(C)O` (configuration not stated) [2,5-hexanediol], for which the mass density came to 968.85 ± 0.68 kg/m3 in series [2] (283.15 K); 965.56 ± 0.65 kg/m3 in series [2] (288.15 K); 962.17 ± 0.63 kg/m3 in series [2] (293.15 K); 959.09 ± 0.65 kg/m3 in series [2] (298.15 K); 955.72 ± 0.67 kg/m3 in series [2] (303.15 K); 952.39 ± 0.68 kg/m3 in series [2] (308.15 K).
